Measured values taken from article PMC3639963, “A New Class of Small Molecule Inhibitor of BMP Signaling” (PLoS ONE, 2013).

What was measured:
Assay in all cases: Nanosyn kinase profiling
Format in all cases: biochemical
Settings in all cases: read-out: Percentage inhibition; for inhibition at 0.1 µM: 0.1 µM inhibitor; for inhibition at 1 µM: 1 µM inhibitor
[1] = target: T1, BRSK2 (Homo sapiens, UniProt Q8IWQ3)
T1 construct: purchased Nanosyn (enzymatic panel); SGC in-house recombinant human kinases (DSF panel); Invitrogen (ALK1-6)
T1 sequence (Q8IWQ3 1-736): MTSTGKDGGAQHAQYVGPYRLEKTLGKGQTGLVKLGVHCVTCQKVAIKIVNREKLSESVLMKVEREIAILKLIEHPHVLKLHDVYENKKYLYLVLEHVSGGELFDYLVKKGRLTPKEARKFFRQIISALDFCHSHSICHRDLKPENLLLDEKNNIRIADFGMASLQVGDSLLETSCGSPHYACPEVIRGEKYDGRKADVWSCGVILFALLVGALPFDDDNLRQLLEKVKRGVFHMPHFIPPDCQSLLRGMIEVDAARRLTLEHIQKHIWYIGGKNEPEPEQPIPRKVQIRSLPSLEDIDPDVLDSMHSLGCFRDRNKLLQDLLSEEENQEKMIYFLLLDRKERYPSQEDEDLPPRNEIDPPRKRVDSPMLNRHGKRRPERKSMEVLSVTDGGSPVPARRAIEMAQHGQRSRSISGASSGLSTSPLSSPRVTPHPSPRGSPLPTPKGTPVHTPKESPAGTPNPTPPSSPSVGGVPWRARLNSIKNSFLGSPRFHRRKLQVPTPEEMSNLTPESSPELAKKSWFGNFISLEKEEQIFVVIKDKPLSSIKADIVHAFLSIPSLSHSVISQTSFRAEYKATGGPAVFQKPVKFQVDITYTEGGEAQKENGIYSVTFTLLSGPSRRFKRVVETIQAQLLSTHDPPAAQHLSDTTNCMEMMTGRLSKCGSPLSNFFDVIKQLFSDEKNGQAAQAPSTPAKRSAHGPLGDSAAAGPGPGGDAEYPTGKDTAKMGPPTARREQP
Method in brief: (§1)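 Percent inhibition of each kinase was measured with the inhibitor at 0.1 µM and at 1 µM, as part of a 200-kinase human selectivity panel.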

[2] = target: T2, FYN (Homo sapiens, UniProt P06241)
T2 construct: purchased Nanosyn (enzymatic panel); SGC in-house recombinant human kinases (DSF panel); Invitrogen (ALK1-6)
T2 sequence (P06241 whole entry): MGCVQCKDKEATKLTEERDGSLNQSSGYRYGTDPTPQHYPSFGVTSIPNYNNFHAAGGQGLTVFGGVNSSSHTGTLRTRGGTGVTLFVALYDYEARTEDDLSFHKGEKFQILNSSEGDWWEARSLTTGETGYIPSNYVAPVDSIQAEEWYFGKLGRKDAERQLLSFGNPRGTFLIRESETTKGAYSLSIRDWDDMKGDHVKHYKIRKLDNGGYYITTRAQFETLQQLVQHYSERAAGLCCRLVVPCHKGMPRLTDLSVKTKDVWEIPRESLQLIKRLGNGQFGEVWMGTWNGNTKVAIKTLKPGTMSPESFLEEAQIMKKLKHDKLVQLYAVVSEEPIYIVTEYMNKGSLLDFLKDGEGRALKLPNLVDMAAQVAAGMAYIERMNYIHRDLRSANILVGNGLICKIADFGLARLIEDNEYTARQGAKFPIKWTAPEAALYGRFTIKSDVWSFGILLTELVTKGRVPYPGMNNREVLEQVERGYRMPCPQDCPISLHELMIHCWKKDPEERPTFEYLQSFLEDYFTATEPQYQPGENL
Method in brief: as §1

[3] = target: T3, GRK7 (Homo sapiens, UniProt Q8WTQ7)
T3 construct: purchased Nanosyn (enzymatic panel); SGC in-house recombinant human kinases (DSF panel); Invitrogen (ALK1-6)
T3 sequence (Q8WTQ7 1-553): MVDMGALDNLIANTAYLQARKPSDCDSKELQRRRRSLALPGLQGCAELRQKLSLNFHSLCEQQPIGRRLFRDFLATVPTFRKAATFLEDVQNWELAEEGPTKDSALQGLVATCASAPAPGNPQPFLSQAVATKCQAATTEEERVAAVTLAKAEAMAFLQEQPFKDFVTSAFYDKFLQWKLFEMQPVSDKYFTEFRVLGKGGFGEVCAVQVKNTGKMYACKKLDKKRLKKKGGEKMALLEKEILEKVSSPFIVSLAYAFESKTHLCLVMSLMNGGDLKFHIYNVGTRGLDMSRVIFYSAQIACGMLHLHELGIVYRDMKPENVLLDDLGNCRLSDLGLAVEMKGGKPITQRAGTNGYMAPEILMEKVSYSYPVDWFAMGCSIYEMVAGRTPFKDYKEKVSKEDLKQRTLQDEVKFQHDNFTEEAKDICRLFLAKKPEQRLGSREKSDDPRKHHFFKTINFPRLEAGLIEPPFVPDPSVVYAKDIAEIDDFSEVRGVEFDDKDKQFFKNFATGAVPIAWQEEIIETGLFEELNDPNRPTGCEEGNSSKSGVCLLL
Method in brief: as §1

[4] = target: T4, MSSK1 (Homo sapiens, UniProt Q9UPE1)
T4 construct: purchased Nanosyn (enzymatic panel); SGC in-house recombinant human kinases (DSF panel); Invitrogen (ALK1-6)
T4 sequence (Q9UPE1 whole entry): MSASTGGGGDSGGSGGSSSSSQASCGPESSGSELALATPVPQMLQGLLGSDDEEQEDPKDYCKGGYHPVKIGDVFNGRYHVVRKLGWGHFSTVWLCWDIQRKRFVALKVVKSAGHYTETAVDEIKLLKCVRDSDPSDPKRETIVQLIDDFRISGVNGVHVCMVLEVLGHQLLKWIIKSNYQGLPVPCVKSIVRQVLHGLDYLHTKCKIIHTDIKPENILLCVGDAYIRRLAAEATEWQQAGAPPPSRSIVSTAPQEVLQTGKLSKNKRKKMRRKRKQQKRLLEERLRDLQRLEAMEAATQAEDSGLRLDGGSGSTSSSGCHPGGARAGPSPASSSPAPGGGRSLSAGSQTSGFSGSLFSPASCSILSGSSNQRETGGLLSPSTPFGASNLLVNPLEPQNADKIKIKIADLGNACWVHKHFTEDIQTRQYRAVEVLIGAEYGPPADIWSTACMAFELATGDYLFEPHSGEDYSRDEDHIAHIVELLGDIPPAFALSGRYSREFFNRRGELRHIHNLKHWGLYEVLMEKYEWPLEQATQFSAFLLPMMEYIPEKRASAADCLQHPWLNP
Method in brief: as §1

[5] = target: T5, MST1 (Homo sapiens, UniProt Q13043)
T5 construct: purchased Nanosyn (enzymatic panel); SGC in-house recombinant human kinases (DSF panel); Invitrogen (ALK1-6)
T5 sequence (Q13043 1-487): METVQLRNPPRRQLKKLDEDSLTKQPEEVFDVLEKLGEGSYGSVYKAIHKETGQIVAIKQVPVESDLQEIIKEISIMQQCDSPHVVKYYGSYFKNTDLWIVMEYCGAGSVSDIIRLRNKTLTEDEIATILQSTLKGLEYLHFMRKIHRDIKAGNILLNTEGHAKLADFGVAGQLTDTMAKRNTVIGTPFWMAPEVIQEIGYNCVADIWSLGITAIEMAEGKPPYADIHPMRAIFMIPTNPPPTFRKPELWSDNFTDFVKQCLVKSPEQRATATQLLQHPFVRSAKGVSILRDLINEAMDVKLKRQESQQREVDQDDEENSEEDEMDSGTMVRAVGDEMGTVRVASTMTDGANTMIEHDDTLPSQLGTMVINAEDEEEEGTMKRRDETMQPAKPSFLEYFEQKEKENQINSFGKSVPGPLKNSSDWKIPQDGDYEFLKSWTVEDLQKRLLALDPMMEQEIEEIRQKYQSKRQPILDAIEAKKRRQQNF
Method in brief: as §1

[6] = target: T6, NEK2 (Homo sapiens, UniProt P51955)
T6 construct: purchased Nanosyn (enzymatic panel); SGC in-house recombinant human kinases (DSF panel); Invitrogen (ALK1-6)
T6 sequence (P51955 1-445): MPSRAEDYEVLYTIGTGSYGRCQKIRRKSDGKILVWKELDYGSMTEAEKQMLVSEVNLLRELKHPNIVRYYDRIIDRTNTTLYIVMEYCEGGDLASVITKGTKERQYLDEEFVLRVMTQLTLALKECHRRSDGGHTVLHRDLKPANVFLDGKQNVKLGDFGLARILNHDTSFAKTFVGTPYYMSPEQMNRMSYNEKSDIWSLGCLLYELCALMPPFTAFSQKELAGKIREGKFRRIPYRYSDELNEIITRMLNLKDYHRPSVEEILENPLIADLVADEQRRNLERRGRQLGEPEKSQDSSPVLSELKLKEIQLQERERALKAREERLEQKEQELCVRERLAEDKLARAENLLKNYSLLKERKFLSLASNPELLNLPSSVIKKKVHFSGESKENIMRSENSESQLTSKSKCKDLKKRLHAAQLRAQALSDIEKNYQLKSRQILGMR
Method in brief: as §1

[7] = target: T7, NEK7 (Homo sapiens, UniProt Q8TDX7)
T7 construct: purchased Nanosyn (enzymatic panel); SGC in-house recombinant human kinases (DSF panel); Invitrogen (ALK1-6)
T7 sequence (Q8TDX7 whole entry): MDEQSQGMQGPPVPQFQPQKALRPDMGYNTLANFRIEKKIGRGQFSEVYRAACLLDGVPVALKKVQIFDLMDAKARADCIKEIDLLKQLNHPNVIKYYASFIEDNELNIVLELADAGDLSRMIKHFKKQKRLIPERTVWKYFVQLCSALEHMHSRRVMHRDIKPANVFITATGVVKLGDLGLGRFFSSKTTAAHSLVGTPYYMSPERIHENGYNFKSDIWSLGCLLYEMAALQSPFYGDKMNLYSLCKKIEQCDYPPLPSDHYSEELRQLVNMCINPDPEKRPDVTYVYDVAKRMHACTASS
Method in brief: as §1

Row | SMILES | inhibition at 0.1 µM [1] | inhibition at 1 µM [1] | inhibition at 0.1 µM [2] | inhibition at 1 µM [2] | inhibition at 0.1 µM [3] | inhibition at 1 µM [3] | inhibition at 0.1 µM [4] | inhibition at 1 µM [4] | inhibition at 0.1 µM [5] | inhibition at 1 µM [5] | inhibition at 0.1 µM [6] | inhibition at 1 µM [6] | inhibition at 0.1 µM [7] | inhibition at 1 µM [7]
1 | COc1cc(-c2cc(-c3cccc(O)c3)cnc2N)cc(OC)c1OC [K02288, 3-[6-amino-5-(3,4,5-trimethoxy-phenyl)-pyridin-3-yl]-phenol] | 0.9% | 2.7% | 10% | 43% | 0.2% | -3% | 1.8% | 0% | -1% | 1.1% | -2% | -2% | 0.2% | -3%
2 | c1ccc2c(-c3cnn4cc(-c5ccc(N6CCNCC6)cc5)cnc34)ccnc2c1 [LDN-193189] | 4.4% | 22% | 18% | 60% | 1.8% | 0.8% | -3% | 1.5% | 4% | 7.9% | 2.8% | 1.2% | 7.9% | 1.7%
